From patent US9260481B2, “Peptide derivatives as antibiotics” (priority 2011, dated 2016)
In brackets after ≈: the same amount, converted by molar mass. Read-outs that look alike come from different tables or passages of the source. Marks after values point to notes of the source that are not given here.

Legend:
[1] = test system: K. pneumoniae ATCC 43816; type: cell-based, Klebsiella pneumoniae; conditions: for MIC antibiotic alone: K. pneumoniae ATCC 43816, checkerboard, ~10^4 CFU/mL; for Combinations Odilomycin/antibiotic: Odilomycin concentration: Odilomycin A part of the inhibitory combination with the labelled antibiotic
Excerpt: (§1) Vancomycin, rifampicin, kanamycin, gentamicin, ampicillin, ciprofloxacin and tetracycline (Sigma-Aldrich) were provided as standard powders by the manufacturers.

[2] = test system: S. aureus ATCC 25923; type: cell-based, Staphylococcus aureus; conditions: for MIC antibiotic alone: S. aureus ATCC 25923, checkerboard, ~10^4 CFU/mL
Excerpt: as §1

[3] = test system: S. aureus; assay: Resistance profile of multiresistant clinical isolates; type: cell-based, Staphylococcus aureus; design: key: R: resistant; S: sensitive; I: intermediate
[4] = test system: P. aeruginosa; assay: as above; type: cell-based, Pseudomonas aeruginosa; design: key: R: resistant; S: sensitive; I: intermediate
[5] = test system: Klebsiella oxytoca; conditions: K. oxytoca clinical isolate NEB9
Method: (§2) The minimal inhibitory concentrations (MIC) were determined according to the Clinical and Laboratory Standards Institute (CLSI) conditions guidelines detailed in Table 7. Assays were performed in triplicate.
(§3) Preparation of Inocula. Five to 10 well-isolated colonies were picked and resuspended in 3 ml sterile saline. The inoculum was re-suspended by vigorous shaking on a vortex mixer for 15 s. Turbidity was adjusted to McFarland standard 0.5 ([…]). The inoculum was further diluted in the appropriate media (Table 7) to give a final inoculum in each well of ˜2-8×10^5 CFU/ml.
(§4) Addition of Test Article. Stock solutions of Odilomycin A or comparator were diluted in the appropriate media to give a maximum starting concentration of 50 μg/mL in the assay. 50 μL of medium was dispensed into each well in columns two to 12 of a 96 well plate. 100 μL of the appropriate test compound solution (100 μg/mL) was dispensed into each well in column one. In the case of M. catarrhalis, M. haemolytica and P. multocida these values were doubled (a final assay volume of 200 μL was used). […] Columns 11 and 12 served as positive (no drug or test article, inoculum added), and negative (no drug, test article, or inoculum added) growth controls respectively.
(§5) Addition of Bacterial Strains. 50 μL of each inoculum suspension was added to the appropriate wells, resulting in a final volume of 100 μL consisting of 50 μL diluted compound or diluents, and 50 μL of inoculum or broth alone.

[6] = test system: Escherichia coli
Method: as §2, §3, §4, §5

[7] = test system: Enterobacter cloacae; conditions: E. cloacae clinical isolate 11370
Method: as §2, §3, §4, §5

[8] = test system: Klebsiella pneumoniae
Method: as §2, §3, §4, §5

[9] = test system: Pseudomonas aeruginosa; conditions: P. aeruginosa ATCC 27853
Method: as §2, §3, §4, §5

[10] = test system: P. aeruginosa ATCC 27853; assay: Acute lethal infection in mice; type: in vivo, BALB/c mice; conditions: P. aeruginosa infection; Tobramycin […] IP
Method: Female BALB/c mice ordered from Harlan Laboratories (Indianapolis, Ind.) weighing 19-21 g were used in experiments of acute lethal infection. Mice were fully immunocompetent. Infection was induced by inoculating intraperitoneally in mice a bacterial suspension of P. aeruginosa ATCC 27853. The bacterial challenges (8.6 log10 CFU/mouse) were given suspended in 0.1 mL sterile saline. Treatments were administered once 1 hour after challenge via IV injection (Tobramycin was administered via IP injection immediately after challenge) (Table 13). Mortality was tracked out to 2 days post challenge. Animals that remained surviving at the end of the study were humanely euthanized.

[11] = test system: Staphylococcus aureus; assay: microbe, parasite or virus in culture; conditions: Staphylococcus aureus
Method: as §2, §3, §4, §5

[12] = test system: S. aureus Smith ATCC 13709; assay: Acute lethal infection in mice; type: in vivo, ICR mice
Method: Female ICR mice ordered from Harlan Laboratories (Indianapolis, Ind.) weighing 19-21 g were used in experiments of acute lethal infection. Mice were fully immunocompetent. Infection was induced by inoculating intraperitoneally in mice a bacterial suspension of S. aureus Smith ATCC 13709. The bacterial challenges (ca 5 log10 CFU/mouse) were given suspended in 0.5 mL of 20% hog mucin. […] Mortality was tracked out to 5 days post challenge. Animals that remained surviving at the end of the study were humanely euthanized.

[13] = S. aureus multiresistant clinical isolate 16666
[14] = S. aureus multiresistant clinical isolate 20364
[15] = S. aureus multiresistant clinical isolate 20681
[16] = S. aureus multiresistant clinical isolate 21840
[17] = S. aureus multiresistant clinical isolate 23305
[18] = P. aeruginosa multiresistant clinical isolate 5618
[19] = P. aeruginosa multiresistant clinical isolate 35170
[20] = P. aeruginosa multiresistant clinical isolate 42162
[21] = P. aeruginosa multiresistant clinical isolate 401681
[22] = P. aeruginosa multiresistant clinical isolate 512232
[23] = mice, S. aureus 5 log10 CFU/mouse IP, Linezolid 12.5 mg/kg PO at 0 hr, n=6

Molecule	MIC antibiotic alone [2]	Susceptibility of isolate to antibacterial (R/S/I) [3, 13]	Susceptibility of isolate to antibacterial (R/S/I) [3, 14]	Susceptibility of isolate to antibacterial (R/S/I) [3, 15]	Susceptibility of isolate to antibacterial (R/S/I) [3, 16]	Susceptibility of isolate to antibacterial (R/S/I) [3, 17]	Susceptibility of isolate to antibacterial (R/S/I) [4, 18]	Susceptibility of isolate to antibacterial (R/S/I) [4, 19]	Susceptibility of isolate to antibacterial (R/S/I) [4, 20]	Susceptibility of isolate to antibacterial (R/S/I) [4, 21]	Susceptibility of isolate to antibacterial (R/S/I) [4, 22]	further results
NC[C@H]1O[C@H](O[C@H]2[C@H](O)[C@@H](O[C@H]3O[C@H](CO)[C@@H](O)[C@H](N)[C@H]3O)[C@H](N)C[C@@H]2N)[C@H](O)[C@@H](O)[C@@H]1O [Kanamycin]	0.62 µg/mL	–	–	–	–	–	–	–	–	–	–	MIC antibiotic alone [1]: 1.56 µg/mL; Combinations Odilomycin/antibiotic: Odilomycin concentration ([1]; K. pneumoniae ATCC 43816): 6.25 µg/mL; Combinations Odilomycin/antibiotic: antibiotic concentration ([1]; K. pneumoniae ATCC 43816, antibiotic part of the inhibitory combination with Odilomycin A): 0.39 µg/mL
CC[C@H]1OC(=O)[C@H](C)[C@@H](O[C@H]2C[C@@](C)(OC)[C@@H](O)[C@H](C)O2)[C@H](C)[C@@H](O[C@@H]2O[C@H](C)C[C@H](N(C)C)[C@H]2O)[C@](C)(O)C[C@@H](C)C(=O)[C@H](C)[C@@H](O)[C@]1(C)O [Erythromycin]	–	R	R	S	S	R	R	R	R	R	R	–
CCC[C@@H]1C[C@@H](C(=O)N[C@@H]([C@H]2O[C@H](SC)[C@H](O)[C@@H](O)[C@H]2O)[C@H](C)Cl)N(C)C1 [Clindamycin]	–	R	R	S	S	R	R	R	R	R	R	–
CN(C)[C@@H]1C(O)=C(C(N)=O)C(=O)[C@@]2(O)C(O)=C3C(=O)c4c(O)cccc4[C@@](C)(O)[C@H]3C[C@@H]12 [Tetracycline]	0.78 µg/mL	–	–	–	–	–	–	–	–	–	–	–
polymyxin [reference compound]	–	–	–	–	–	–	–	–	–	–	–	MIC [5]: 0.39^c μg/mL; MIC ([6]; E. coli ATCC 25922): 0.39^c μg/mL; MIC ([6]; E. coli CTX-M14 clinical isolate AEC7): 0.39^c μg/mL; MIC ([6]; E. coli CTX-M15 clinical isolate MEC23): 0.39^c μg/mL; MIC ([6]; E. coli TEM clinical isolate MEC12): 0.39^c μg/mL; MIC [7]: 0.78^c μg/mL; MIC ([8]; K. pneumoniae ATCC 43816): 0.39^c μg/mL; MIC ([8]; K. pneumoniae KPC clinical isolate 2475): 0.78^c μg/mL; MIC [9]: 0.39^c μg/mL
Gentamicin	0.078 µg/mL	R	S	S	S	R	R	R	R	R	R	MIC antibiotic alone [1]: 0.39 µg/mL; Combinations Odilomycin/antibiotic: Odilomycin concentration ([1]; K. pneumoniae ATCC 43816): 3.12 µg/mL; Synergy with Odilomycin A ([1]; K. pneumoniae ATCC 43816, labelled antibiotic combined with Odilomycin A): synergistic interaction; Combinations Odilomycin/antibiotic: Odilomycin concentration ([2]; S. aureus ATCC 25923, Odilomycin A part of the inhibitory combination with the labelled antibiotic): 0.19 µg/mL; Combinations Odilomycin/antibiotic: antibiotic concentration ([2]; S. aureus ATCC 25923, antibiotic part of the inhibitory combination with Odilomycin A): 0.039 µg/mL; Synergy with Odilomycin A ([2]; S. aureus ATCC 25923, labelled antibiotic combined with Odilomycin A): synergistic interaction
CC1(C)S[C@@H]2[C@H](NC(=O)[C@H](N)c3ccccc3)C(=O)N2[C@H]1C(=O)O [Ampicillin]	0.15 µg/mL	–	–	–	–	–	–	–	–	–	–	–
C[C@@H](O)[C@H]1C(=O)N2C(C(=O)O)=C(SCCN=CN)C[C@H]12 [Imipenem]	–	–	–	–	–	–	R	R	R	S	R	–
CO[C@@]1(NC(=O)Cc2cccs2)C(=O)N2C(C(=O)O)=C(COC(N)=O)CS[C@@H]21 [Cefoxitin]	–	R	R	R	S	I	–	–	–	–	–	–
NC[C@H]1O[C@H](O[C@H]2[C@H](O)[C@@H](O[C@H]3O[C@H](CO)[C@@H](O)[C@H](N)[C@H]3O)[C@H](N)C[C@@H]2N)[C@H](N)C[C@@H]1O [Tobramycin, reference compound]	–	–	–	–	–	–	–	–	–	–	–	Survival of all treated mice [10]: survived up to 5 days after infection
C[C@H]1[C@H](NC(=O)/C(=N\OC(C)(C)C(=O)O)c2csc(N)n2)C(=O)N1S(=O)(=O)O [Aztreonam]	–	–	–	–	–	–	S	R	I	I	R	–
CN[C@H](CC(C)C)C(=O)N[C@H]1C(=O)N[C@@H](CC(N)=O)C(=O)N[C@H]2C(=O)N[C@H]3C(=O)N[C@H](C(=O)N[C@H](C(=O)O)c4cc(O)cc(O)c4-c4cc3ccc4O)[C@H](O)c3ccc(c(Cl)c3)Oc3cc2cc(c3O[C@@H]2O[C@H](CO)[C@@H](O)[C@H](O)[C@H]2O[C@H]2C[C@](C)(N)[C@H](O)[C@H](C)O2)Oc2ccc(cc2Cl)[C@H]1O [Vancomycin, vancomycin]	0.78 µg/mL	S	S	S	S	S	–	–	–	–	–	MIC ([11]; ATCC13709): 0.78 µg/mL (≈ 0.538 µM); MIC ([11]; ATCC25923): 0.78 µg/mL (≈ 0.538 µM); MIC ([11]; ATCCBAA1556 / USA300): 0.78 µg/mL (≈ 0.538 µM)
O=C(O)c1cn(C2CC2)c2cc(N3CCNCC3)c(F)cc2c1=O [Ciprofloxacin, ciprofloxacin]	0.31 µg/mL	–	–	–	–	–	–	–	–	–	–	–
CO[C@H]1/C=C/O[C@@]2(C)Oc3c(C)c(O)c4c(O)c(c(/C=N/N5CCN(C)CC5)c(O)c4c3C2=O)NC(=O)/C(C)=C\C=C\[C@H](C)[C@H](O)[C@@H](C)[C@@H](O)[C@@H](C)[C@H](OC(C)=O)[C@@H]1C [Rifampicin]	0.012 µg/mL	–	–	–	–	–	–	–	–	–	–	–
CC(=O)NC[C@H]1CN(c2ccc(N3CCOCC3)c(F)c2)C(=O)O1 [Linezolid, reference compound]	–	S	S	S	S	S	–	–	–	–	–	Survival of all treated mice ([12]; S. aureus infection, linezolid 12.5 mg/kg PO): survived up to 5 days after infection; Animal deaths Day 0 [12, 23]: 0; Animal deaths Day 1 [12, 23]: 0; Animal deaths Day 2 [12, 23]: 0; Animal deaths Day 3 [12, 23]: 0; Animal deaths Day 4 [12, 23]: 0; Animal deaths Day 5 [12, 23]: 0
